Experiment [1] addresses T1, human GV sPLA2 (Homo sapiens, UniProt P39877).
T1 sequence (P39877 21-138): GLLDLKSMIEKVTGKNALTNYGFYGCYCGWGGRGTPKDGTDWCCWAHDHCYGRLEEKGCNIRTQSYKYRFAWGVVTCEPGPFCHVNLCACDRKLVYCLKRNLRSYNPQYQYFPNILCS
The experiment in a line: mixed micelle-based modified Dole assay, GV sPLA2 inhibition. The experiment is classed as biochemical. The note with it: 0.091 mole fraction inhibitor in mixed micelles; n = 3.

Experiment [2] deals with T2, human GIVA cPLA2 (Homo sapiens, UniProt P47712).
T2 sequence (P47712 1-749): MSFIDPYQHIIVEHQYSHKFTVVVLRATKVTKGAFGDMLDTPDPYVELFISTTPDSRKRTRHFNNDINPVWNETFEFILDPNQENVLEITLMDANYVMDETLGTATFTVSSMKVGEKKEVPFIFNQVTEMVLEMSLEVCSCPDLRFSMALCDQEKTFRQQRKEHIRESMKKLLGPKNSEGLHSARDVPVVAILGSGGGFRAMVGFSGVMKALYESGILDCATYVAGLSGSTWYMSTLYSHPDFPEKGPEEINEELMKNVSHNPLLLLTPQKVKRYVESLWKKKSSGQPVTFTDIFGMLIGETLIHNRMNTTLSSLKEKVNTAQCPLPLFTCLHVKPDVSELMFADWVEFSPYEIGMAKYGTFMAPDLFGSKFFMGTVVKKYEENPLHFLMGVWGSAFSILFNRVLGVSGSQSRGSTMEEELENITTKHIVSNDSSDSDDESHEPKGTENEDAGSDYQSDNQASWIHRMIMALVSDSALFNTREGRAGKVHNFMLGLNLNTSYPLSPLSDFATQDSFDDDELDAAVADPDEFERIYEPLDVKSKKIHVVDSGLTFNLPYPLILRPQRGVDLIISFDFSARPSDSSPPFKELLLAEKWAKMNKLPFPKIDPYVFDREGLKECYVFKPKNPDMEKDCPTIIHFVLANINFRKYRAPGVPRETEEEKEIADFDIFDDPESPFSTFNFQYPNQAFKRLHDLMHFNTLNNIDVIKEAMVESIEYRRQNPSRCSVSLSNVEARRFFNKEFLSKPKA
Nature of the experiment: mixed micelle-based modified Dole assay, GIVA cPLA2 inhibition. The note with it: 0.091 mole fraction inhibitor in mixed micelles; n = 3; listed as GK187. The experiment is classed as biochemical.

Experiment [3] addresses T1, human GV sPLA2. The note with it: 0.091 mole fraction inhibitor; cited from earlier work.
Another experiment concerns the target T3, human GVIA iPLA2 (Homo sapiens, UniProt O60733).
T3 sequence (O60733 1-806): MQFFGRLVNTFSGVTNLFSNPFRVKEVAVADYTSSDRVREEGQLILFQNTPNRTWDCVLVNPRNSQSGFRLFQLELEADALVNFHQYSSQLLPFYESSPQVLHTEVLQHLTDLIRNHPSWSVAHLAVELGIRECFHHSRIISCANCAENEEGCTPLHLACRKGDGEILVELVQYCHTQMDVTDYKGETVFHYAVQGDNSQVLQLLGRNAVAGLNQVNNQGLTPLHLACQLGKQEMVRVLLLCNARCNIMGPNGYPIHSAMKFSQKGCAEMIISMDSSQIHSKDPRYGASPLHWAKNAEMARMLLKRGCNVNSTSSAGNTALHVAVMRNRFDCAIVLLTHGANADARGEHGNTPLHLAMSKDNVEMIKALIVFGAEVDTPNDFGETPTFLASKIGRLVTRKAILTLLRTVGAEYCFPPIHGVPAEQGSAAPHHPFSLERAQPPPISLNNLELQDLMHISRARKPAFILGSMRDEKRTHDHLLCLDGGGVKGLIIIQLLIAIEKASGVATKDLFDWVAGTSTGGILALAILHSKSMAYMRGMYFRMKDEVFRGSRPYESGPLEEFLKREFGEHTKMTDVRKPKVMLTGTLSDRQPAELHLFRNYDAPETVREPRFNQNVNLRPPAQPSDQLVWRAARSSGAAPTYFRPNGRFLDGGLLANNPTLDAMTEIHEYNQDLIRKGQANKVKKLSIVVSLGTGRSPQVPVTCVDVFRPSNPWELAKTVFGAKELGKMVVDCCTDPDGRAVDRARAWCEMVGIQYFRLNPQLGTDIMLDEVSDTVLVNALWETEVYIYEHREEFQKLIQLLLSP
Particulars: cited from earlier work.

Experiment [4] deals with T2, human GIVA cPLA2. Particulars: 0.091 mole fraction inhibitor; cited from earlier work.

Molecules are shown by their SMILES. Where two headings read alike, the source gives them in different places.

For `COc1ccc(CCCCC(=O)C(F)(F)C(F)(F)F)cc1` [6d, 1,1,1,2,2-Pentafluoro-7-(4-methoxyphenyl)heptan-3-one], on human GV sPLA2 [1], the “GV sPLA2 % Inhibition at 0.091” value is recorded as “no significant inhibition”. Besides, at human GIVA cPLA2 [2], the “GIVA cPLA2 % Inhibition at 0.091” value is “no significant inhibition”.
For `O=C(CCCCc1ccccc1)C(F)(F)C(F)(F)F` [FKGK11], the “GV sPLA2 % Inhibition at 0.091” value on human GV sPLA2 [3] is listed as 28.0%. The “GVIA iPLA2 % Inhibition at 0.091” value at human GVIA iPLA2 (0.091 mole fraction inhibitor) is given as 99.4%. The “GVIA iPLA2 XI(50)” value at human GVIA iPLA2 (mole fraction of inhibitor for 50% inhibition) was 0.0014 ± 0.0001 mole fraction. Further, the “GIVA cPLA2 % Inhibition at 0.091” value on human GIVA cPLA2 [4] is “N.D. (N.D. signifies compounds with less than 25% inhibition (or no detectable inhibition))”.
